How the values were obtained:
[1] = test system: Abeta 1-42 produced and secreted into the medium of human neuroblastoma SKNBE2 cells; assay: Cellular αLisa assay in SKNBE2 cells; format: cell-based; details: human neuroblastoma SKNBE2 cells expressing hAPP695, 18 hours incubation; for IC50: Homo sapiens, SKNBE2, 18 h, read-out: Cellular αLisa assay in SKNBE2 cells Abeta 42 pIC50 (converted)
Description: Cellular αLisa Assay in SKNBE2 Cells
In two αLisa assays the levels of Abeta 1-42 produced and secreted into the medium of human neuroblastoma SKNBE2 cells are quantified. The assay is based on the human neuroblastoma SKNBE2 expressing the wild type Amyloid Precursor Protein (hAPP695). The compounds are diluted and added to these cells, incubated for 18 hours and then measurements of Abeta 1-42 are taken. Abeta 1-42 are measured by sandwich αLisa. αLisa is a sandwich assay using biotinylated antibody AbN/25 attached to streptavidin coated beads and antibody cAb42/26 conjugated acceptor beads for the detection of Abeta 1-42 respectively. In the presence of Abeta 1-42, the beads come into close proximity. The excitation of the donor beads provokes the release of singlet oxygen molecules that trigger a cascade of energy transfer in the acceptor beads, resulting in light emission. Light emission is measured after 1 hour incubation (excitation at […] and emission at 615 nm).
(§1) A best-fit curve is fitted by a minimum sum of squares method to the plot of % Controlmin versus compound concentration. From this an IC50 value (inhibitory concentration causing 50% inhibition of activity) can be obtained.

[2] = Limited safety evaluation in the beagle dog (observations, serum biochemistry); format: in vivo
Description: (§2) Test compounds were tested to evaluate the effect on the beta-amyloid profile in cerebrospinal fluid (CSF) of dogs after a single dose, in combination with pharmacokinetic (PK) follow up and limited safety evaluation. For each of compound 4b, 3c, 7d, or 14, four beagle dogs (2 males, 2 females) were dosed with vehicle (1 ml/kg of an aqueous solution of 20% cyclodextrin) and 12, 8, 4 and 4 beagle dogs (2 males and 2 females per dosage group), were dosed with test compounds as follows:
CSF was taken in conscious animals directly from the lateral ventricle via a cannula which was screwed in the skull and covered with subcutaneous tissue and skin, before and at 4, 8, 25 and 49 hours after dosing. Eight hours after dosing the animals got access to their regular meal for 30 minutes. […] The CSF samples were used for measurement of Abeta 1-42.

BACE2 = molecular target: T1, BACE2 (Homo sapiens, UniProt Q9Y5Z0); assay: BACE2 biochemical FRET based assay; details: recombinant BACE2, 450 minutes at room temperature, pH 5.0; for IC50: read-out: Biochemical FRET based assay pIC50 (converted)
T1 construct: recombinant BACE2 protein in a final concentration of 0.4 μg/ml
T1 sequence (Q9Y5Z0 63-518): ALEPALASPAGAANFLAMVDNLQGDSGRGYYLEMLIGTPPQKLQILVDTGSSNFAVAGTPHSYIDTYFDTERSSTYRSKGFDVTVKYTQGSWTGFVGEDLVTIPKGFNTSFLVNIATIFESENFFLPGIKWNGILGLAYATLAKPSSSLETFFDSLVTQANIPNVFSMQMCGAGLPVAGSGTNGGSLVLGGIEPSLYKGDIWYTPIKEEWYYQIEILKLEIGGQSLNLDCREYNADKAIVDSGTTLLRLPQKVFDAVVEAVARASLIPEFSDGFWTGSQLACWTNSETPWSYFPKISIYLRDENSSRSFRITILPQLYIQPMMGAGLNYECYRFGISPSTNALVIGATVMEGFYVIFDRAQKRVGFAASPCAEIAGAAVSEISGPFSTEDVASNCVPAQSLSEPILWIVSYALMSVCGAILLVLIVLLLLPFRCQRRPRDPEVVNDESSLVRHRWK
Text: BACE2 Biochemical FRET Based Assay
(§3) This assay is a Fluorescence Resonance Energy Transfer Assay (FRET) based assay. The substrate for this assay contains the ‘Swedish’ Lys-Met/Asn-Leu mutation of the amyloid precursor protein (APP) beta-site APP-cleaving enzyme cleavage site. This substrate also contains two fluorophores: (7-methoxycoumarin-4-yl) acetic acid (Mca) is a fluorescent donor with excitation wavelength at 320 nm and emission at 405 nm and 2,4-Dinitrophenyl (Dnp) is a proprietary quencher acceptor. […] Upon cleavage by the beta-site APP-cleaving enzyme, the fluorophore Mca is separated from the quenching group Dnp, restoring the full fluorescence yield of the donor. The increase in fluorescence is linearly related to the rate of proteolysis.
Briefly in a 384-well format recombinant BACE2 protein in a final concentration of 0.4 μg/ml is incubated for 450 minutes at room temperature with 10 μM substrate in incubation buffer (50 mM Citrate buffer pH 5.0, 0.05% PEG, no DMSO) in the absence or presence of compound. Next the amount of proteolysis is directly measured by fluorescence measurement at T=0 and T=450 (excitation at 320 nm and emission at 405 nm). Results are expressed in RFU (Relative Fluorescence Units), as difference between T450 and T0.
as §1

[3] = test system: Abeta 1-42 in cerebrospinal fluid (CSF); assay: Pharmacology in the beagle dog: beta-amyloid profile in CSF after a single dose; format: in vivo; details: for % Mean decrease in Abeta 1-42 at 8 h post dosing compared to own baseline / % Mean decrease in Abeta 1-42 at 25 h post dosing compared to own baseline / % Mean decrease in Abeta 1-42 at 49 h post dosing compared to own baseline: beagle dog CSF
Description: Pharmacology in the Beagle Dog
as §2
CSF was taken in conscious animals directly from the lateral ventricle via a cannula which was screwed in the skull and covered with subcutaneous tissue and skin, before and at 4, 8, 25 and 49 hours after dosing. Eight hours after dosing the animals got access to their regular meal for 30 minutes. Blood was taken for PK follow up (0.5, 1, 2, 4, 8, 25 and 49 hours) and serum samples for biochemistry were taken before and at 8 and 25 h after dosing. The CSF samples were used for measurement of Abeta 1-42.

BACE1 = molecular target: T2, BACE1 (Homo sapiens, UniProt P56817); assay: BACE1 biochemical FRET based assay; details: Method 1: recombinant BACE1 1 μg/ml, 120 min at room temperature, pH 5.0; for IC50: read-out: Biochemical FRET based assay pIC50 (converted)
T2 construct: recombinant BACE1 protein in a final concentration of 1 μg/ml
Text: BACE1 Biochemical Fret Based Assay
as §3, with “this assay is an APP derived 13 amino acids peptide that contains the” for “this assay contains the”, “cleavage by BACE1, the fluorophore” for “cleavage by the beta-site APP-cleaving enzyme, the fluorophore”
Briefly in a 384-well format recombinant BACE1 protein in a final concentration of 1 μg/ml is incubated for 120 minutes at room temperature with 10 μm substrate in incubation buffer (40 mM Citrate buffer pH 5.0, 0.04% PEG, 4% DMSO) in the absence or presence of compound. Next the amount of proteolysis is directly measured by fluorescence measurement at T=0 and T=120 (excitation at 320 nm and emission at 405 nm). Results are expressed in RFU (Relative Fluorescence Units), as difference between T120 and T0.
as §1

T2 sequence (P56817 46-501): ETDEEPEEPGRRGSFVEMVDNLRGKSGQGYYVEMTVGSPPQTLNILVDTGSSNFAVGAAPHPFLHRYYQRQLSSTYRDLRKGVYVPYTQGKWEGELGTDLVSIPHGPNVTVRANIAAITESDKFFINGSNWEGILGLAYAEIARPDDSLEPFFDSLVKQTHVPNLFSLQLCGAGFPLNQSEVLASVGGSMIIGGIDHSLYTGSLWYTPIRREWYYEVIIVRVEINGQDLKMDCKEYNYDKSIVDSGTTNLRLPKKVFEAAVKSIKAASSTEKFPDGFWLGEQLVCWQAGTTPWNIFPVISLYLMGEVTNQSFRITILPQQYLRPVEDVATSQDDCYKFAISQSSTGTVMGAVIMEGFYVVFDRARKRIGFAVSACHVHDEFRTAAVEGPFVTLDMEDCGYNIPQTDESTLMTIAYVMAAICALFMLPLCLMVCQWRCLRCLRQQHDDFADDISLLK

Row | SMILES | IC50 (BACE2) | IC50 (BACE1) | Cellular αLisa assay in SKNBE2 cells Abeta 42 pIC50 [1] | Biochemical FRET based assay pIC50 (BACE2) | Biochemical FRET based assay pIC50 (BACE1) | other results
1 | CC(F)(F)[C@H]1OC[C@]2(c3cc(NC(=O)c4cnc(OCF)cn4)ccc3F)N=C(N)[C@](C)(C#N)C[C@H]12 [compound 14] | 0.0813 µM | 0.00224 µM |  |  |  | IC50 [1]: 0.00692 µM; Observations ([2]; one dog, 0.63 mg/kg single dose, 2 h post dosing): emesis; % Mean decrease in Abeta 1-42 at 8 h post dosing compared to own baseline ([3]; single dose 0.63 mg/kg): 32%; % Mean decrease in Abeta 1-42 at 25 h post dosing compared to own baseline ([3]; single dose 0.63 mg/kg): NR (NR means % decrease < 20); % Mean decrease in Abeta 1-42 at 49 h post dosing compared to own baseline ([3]; single dose 0.63 mg/kg): NR (NR means % decrease < 20)
2 | C[C@@]1(C#N)C[C@@H]2[C@@H](C(F)(F)F)OC[C@]2(c2cc(NC(=O)c3cnc(OCF)cn3)ccc2F)N=C1N [7d] |  |  | 8.02 | 7.25 | 8.79 | ALT liver enzyme increase ([2]; one female dog, 0.31 mg/kg single dose): 6 fold; Observations ([2]; one female dog, 0.31 mg/kg single dose, 49 h post dosing): slight tremors and head shaking; % Mean decrease in Abeta 1-42 at 8 h post dosing compared to own baseline ([3]; single dose 0.31 mg/kg): 42%; % Mean decrease in Abeta 1-42 at 25 h post dosing compared to own baseline ([3]; single dose 0.31 mg/kg): NR (NR means % decrease < 20)
3 | C[C@H]1OC[C@]2(c3cc(NC(=O)c4ccc(C#N)cn4)ccc3F)N=C(N)[C@](C)(C#N)C[C@H]12 [4b] |  |  | 8.9 | 7.84 | 8.73 | Observations ([2]; one female dog dosed at 1.25 mg/kg, single dose, 8 h post dosing): slight diarrhea; % Mean decrease in Abeta 1-42 at 8 h post dosing compared to own baseline ([3]; single dose 0.16 mg/kg): 42%; % Mean decrease in Abeta 1-42 at 25 h post dosing compared to own baseline ([3]; single dose 0.16 mg/kg): 21%; % Mean decrease in Abeta 1-42 at 49 h post dosing compared to own baseline ([3]; single dose 0.16 mg/kg): NR (NR means % decrease < 20); % Mean decrease in Abeta 1-42 at 8 h post dosing compared to own baseline ([3]; single dose 0.31 mg/kg): 54%; % Mean decrease in Abeta 1-42 at 25 h post dosing compared to own baseline ([3]; single dose 0.31 mg/kg): 53%; % Mean decrease in Abeta 1-42 at 49 h post dosing compared to own baseline ([3]; single dose 0.31 mg/kg): NR (NR means % decrease < 20); % Mean decrease in Abeta 1-42 at 8 h post dosing compared to own baseline ([3]; single dose 1.25 mg/kg): 80%; % Mean decrease in Abeta 1-42 at 25 h post dosing compared to own baseline ([3]; single dose 1.25 mg/kg): 71%; % Mean decrease in Abeta 1-42 at 49 h post dosing compared to own baseline ([3]; single dose 1.25 mg/kg): 34%; EC50 Aβ42 ([3]; beagle dog, CSF Abeta 1-42 after single dose): 0.024 mg/L
4 | C[C@@]1(C#N)C[C@@H]2[C@@H](C(F)F)OC[C@]2(c2cc(NC(=O)c3cnc(-n4cncn4)cn3)ccc2F)N=C1N [26a] | 0.105 µM | 0.00977 µM |  |  |  | IC50 [1]: 0.0316 µM
5 | CC(F)(F)[C@H]1OC[C@]2(c3cc(NC(=O)c4ccc(C#N)cn4)ccc3F)N=C(N)[C@](C)(C#N)C[C@H]12 [17a] | 0.0214 µM | 0.00158 µM |  |  |  | IC50 [1]: 0.00214 µM
6 | C[C@]1(C#N)C[C@@H]2[C@@H](C(F)(F)F)OC[C@]2(c2cc(NC(=O)c3ccc(C#N)cn3)ccc2F)N=C1N [3f] |  |  | 8.1 | 6.88 | 8.33 | 
7 | CC1OCC2(c3cc(NC(=O)c4cnc(-n5cncn5)cn4)cc(F)c3F)N=C(N)C(C)(C#N)CC12 (single isomer, unassigned) [32b] | 9.55 µM | 0.309 µM | 5.97 |  |  | 
8 | C[C@@]1(C#N)C[C@@H]2[C@@H](C(F)(F)F)OC[C@]2(c2cc(NC(=O)c3ccc(F)cn3)ccc2F)N=C1N [2c] |  |  | 8.32 | 8.3 | 8.73 | 
9 | C[C@]1(C#N)C[C@@H]2[C@@H](C(F)(F)F)OC[C@]2(c2cc(NC(=O)c3cnc(OCF)cn3)ccc2F)N=C1N [7e] |  |  | 7.33 | 6.24 | 7.68 | 
10 | CC1(C#N)CC2C(C(F)(F)F)OCC2(c2cc(NC(=O)c3cnc(-n4cncn4)cn3)ccc2F)N=C1N (single isomer, unassigned) [34b] | > 10 µM | 1.02 µM | 5.31 |  |  | 
11 | C[C@@]1(C#N)C[C@@H]2[C@@H](CF)OC[C@]2(c2cc(NC(=O)c3cnc(OCF)cn3)ccc2F)N=C1N [22a] | 0.0741 µM | 0.00479 µM |  |  |  | IC50 [1]: 0.0132 µM
12 | Cl.NC1=N[C@@]2(c3cc(NC(=O)c4ccc(F)cn4)ccc3F)CO[C@H](C(F)(F)F)[C@H]2CC1 [12c] |  |  | 8.13 | 7.26 | 7.95 | 
13 | C[C@]1(C#N)C[C@H]2[C@H](C(F)(F)F)OC[C@@]2(c2cc(NC(=O)c3ccc(F)cn3)ccc2F)N=C1N [2d] |  |  | <5.05 | <5 | 5 | 
14 | COc1cnc(C(=O)Nc2ccc(F)c([C@]34CO[C@H](C)[C@H]3C[C@@](C)(C#N)C(N)=N4)c2)cn1 [1b] |  |  | 8.47 | 7.21 | 7.89 | 
